Data taken from US8791107B2, “N-substituted oxazinopteridines and oxazinopteridinones” (Takeda Pharmaceutical Company Limited, priority 2011, dated 2014).

Biological target: T1, PI3Kδ (Homo sapiens, UniProt O00329)
T1 construct: The protein is full length and co-expressed with untagged PIK3R1; GST; purchased Invitrogen PV5274
Experiment: PI3Kδ inhibition, modified PIK3CD Adapta TR-FRET assay
Format: biochemical
Details: recombinant GST-tagged full length PIK3CD co-expressed with PIK3R1 (p85α); 2 μM ATP, 50 μM PIP2; read-out: PI3Kδ Inhibition (pIC50) (converted)
Outline: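 Full-length GST-PIK3CD co-expressed with p85α was run in 50 mM HEPES pH 7.5, 3 mM MgCl2, 1 mM EGTA, 100 mM NaCl, 0.03% CHAPS, 2 mM DTT, 1% DMSO, with 12-point compound titrations. Reactions at room temperature were started with solution containing 2 μM ATP and 50 μM PIP2. ADP was detected by Adapta TR-FRET (620 nm-ratioed).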

T1 sequence (O00329 whole entry): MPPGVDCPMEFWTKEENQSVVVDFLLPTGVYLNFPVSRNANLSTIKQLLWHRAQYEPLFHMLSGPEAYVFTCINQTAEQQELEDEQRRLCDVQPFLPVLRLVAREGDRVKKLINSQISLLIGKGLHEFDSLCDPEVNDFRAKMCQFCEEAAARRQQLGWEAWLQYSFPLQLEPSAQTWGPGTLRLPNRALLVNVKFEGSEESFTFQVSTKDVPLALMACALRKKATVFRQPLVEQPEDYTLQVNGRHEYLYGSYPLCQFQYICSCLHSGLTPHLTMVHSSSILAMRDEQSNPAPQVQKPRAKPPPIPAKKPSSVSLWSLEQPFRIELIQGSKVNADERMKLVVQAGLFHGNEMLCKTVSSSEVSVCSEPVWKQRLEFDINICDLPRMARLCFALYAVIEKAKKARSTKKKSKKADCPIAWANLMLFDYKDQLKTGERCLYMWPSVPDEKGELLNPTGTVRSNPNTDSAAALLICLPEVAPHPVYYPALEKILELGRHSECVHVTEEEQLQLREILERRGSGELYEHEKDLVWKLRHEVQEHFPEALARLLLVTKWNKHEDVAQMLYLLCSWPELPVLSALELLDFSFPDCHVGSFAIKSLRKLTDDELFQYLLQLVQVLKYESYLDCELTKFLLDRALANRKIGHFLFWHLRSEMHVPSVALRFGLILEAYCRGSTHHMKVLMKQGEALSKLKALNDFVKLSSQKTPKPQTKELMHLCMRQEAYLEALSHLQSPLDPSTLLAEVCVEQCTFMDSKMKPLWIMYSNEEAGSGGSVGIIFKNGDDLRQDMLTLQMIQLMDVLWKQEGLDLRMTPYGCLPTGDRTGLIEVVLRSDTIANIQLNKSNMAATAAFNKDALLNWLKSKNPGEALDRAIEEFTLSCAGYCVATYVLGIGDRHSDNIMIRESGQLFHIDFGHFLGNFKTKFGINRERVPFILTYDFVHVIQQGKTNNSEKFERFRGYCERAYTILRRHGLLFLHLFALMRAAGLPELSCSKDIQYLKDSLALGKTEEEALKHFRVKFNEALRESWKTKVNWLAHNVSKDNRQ
T1 sequence (P27986 whole entry partner): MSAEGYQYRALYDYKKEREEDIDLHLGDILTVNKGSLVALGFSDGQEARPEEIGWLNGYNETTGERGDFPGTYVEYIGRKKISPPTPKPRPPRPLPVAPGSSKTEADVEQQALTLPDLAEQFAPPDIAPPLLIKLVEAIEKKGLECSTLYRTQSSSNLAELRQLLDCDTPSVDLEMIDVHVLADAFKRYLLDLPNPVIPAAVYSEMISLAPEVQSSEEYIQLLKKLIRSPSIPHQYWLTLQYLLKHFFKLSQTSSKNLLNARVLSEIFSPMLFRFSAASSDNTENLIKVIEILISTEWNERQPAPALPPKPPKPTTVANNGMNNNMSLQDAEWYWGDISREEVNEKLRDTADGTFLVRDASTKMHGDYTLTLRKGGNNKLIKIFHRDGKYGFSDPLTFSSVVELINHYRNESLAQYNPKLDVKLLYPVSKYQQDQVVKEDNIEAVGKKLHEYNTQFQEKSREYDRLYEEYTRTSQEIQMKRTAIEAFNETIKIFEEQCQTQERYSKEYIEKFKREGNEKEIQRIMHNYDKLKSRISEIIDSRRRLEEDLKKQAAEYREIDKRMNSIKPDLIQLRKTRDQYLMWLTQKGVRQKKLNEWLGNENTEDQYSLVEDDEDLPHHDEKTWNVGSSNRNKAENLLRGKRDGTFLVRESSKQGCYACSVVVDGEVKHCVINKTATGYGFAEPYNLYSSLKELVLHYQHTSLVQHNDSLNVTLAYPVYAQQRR

SMILES | IC50 [nM]
COc1cncc(N2C[C@@H]3COCCN3c3nc(-c4cccc5[nH]ccc45)ncc32)c1 [Example 201, (R)-2-(1H-indol-4-yl)-5-(5-methoxypyridin-3-yl)-5,6,6a,7,9,10-hexahydro-[1,4]oxazino[3,4-h]pteridine] | 12.6
COC(=O)c1cc(N2C[C@@H]3COCCN3c3nc(-c4cccc5[nH]ccc45)ncc32)cnc1OC [Example 202, (R)-methyl 5-(2-(1H-indol-4-yl)-6a,7,9,10-tetrahydro-[1,4]oxazino[3,4-h]pteridin-5(6H)-yl)-2-methoxynicotinate] | 2.51
O=C(CN1C[C@@H]2COCCN2c2nc(-c3cccc4[nH]ccc34)ncc21)Nc1ccncc1 [Example 203, (R)-2-(2-(1H-indol-4-yl)-6a,7,9,10-tetrahydro-[1,4]oxazino[3,4-h]pteridin-5(6H)-yl)-N-(pyridin-4-yl)acetamide] | 398
COCCNC(=O)CN1C[C@@H]2COCCN2c2nc(-c3cccc4[nH]ccc34)ncc21 [Example 204, (R)-2-(2-(1H-indol-4-yl)-6a,7,9,10-tetrahydro-[1,4]oxazino[3,4-h]pteridin-5(6H)-yl)-N-(2-methoxyethyl)acetamide] | 158
O=C(CN1C[C@@H]2COCCN2c2nc(-c3cccc4[nH]ccc34)ncc21)NC1CCOCC1 [Example 205, (R)-2-(2-(1H-indol-4-yl)-6a,7,9,10-tetrahydro-[1,4]oxazino[3,4-h]pteridin-5(6H)-yl)-N-(tetrahydro-2H-pyran-4-yl)acetamide] | 200
Cn1cc(NC(=O)CN2C[C@@H]3COCCN3c3nc(-c4cccc5[nH]ccc45)ncc32)cn1 [Example 206, (R)-2-(2-(1H-indol-4-yl)-6a,7,9,10-tetrahydro-[1,4]oxazino[3,4-h]pteridin-5(6H)-yl)-N-(1-methyl-1H-pyrazol-4-yl)acetamide] | 50.1
O=C(CN1C[C@@H]2COCCN2c2nc(-c3cccc4[nH]ccc34)ncc21)NC1CC1 [Example 207, (R)-2-(2-(1H-indol-4-yl)-6a,7,9,10-tetrahydro-[1,4]oxazino[3,4-h]pteridin-5(6H)-yl)-N-cyclopropylacetamide] | 251
CC(C)(C#N)NC(=O)CN1C[C@@H]2COCCN2c2nc(-c3cccc4[nH]ccc34)ncc21 [Example 208, (R)-2-(2-(1H-indol-4-yl)-6a,7,9,10-tetrahydro-[1,4]oxazino[3,4-h]pteridin-5(6H)-yl)-N-(2-cyanopropan-2-yl)acetamide] | 398
CC(C)(C)C(N)CCN1C[C@@H]2COCCN2c2nc(-c3cccc4[nH]ccc34)ncc21 (stereo partly drawn) [Example 210, 1-((R)-2-(1H-indol-4-yl)-6a,7,9,10-tetrahydro-[1,4]oxazino[3,4-h]pteridin-5(6H)-yl)-4,4-dimethylpentan-3-amine] | > 10000
O=C(CN1C[C@@H]2COCCN2c2nc(-n3c(C(F)F)nc4ccccc43)ncc21)NCC1CCOCC1 [Example 211, (R)-2-(2-(2-(difluoromethyl)-1H-benzo[d]imidazol-1-yl)-6a,7,9,10-tetrahydro-[1,4]oxazino[3,4-h]pteridin-5(6H)-yl)-N-((tetrahydro-2H-pyran-4-yl)methyl)acetamide] | 20

Further lines, results first:

IC50 [nM] | SMILES
39.8 | CN(CC1CCOCC1)C(=O)CN1C[C@@H]2COCCN2c2nc(-c3cccc4[nH]ccc34)ncc21 [Example 212, (R)-2-(2-(1H-indol-4-yl)-6a,7,9,10-tetrahydro-[1,4]oxazino[3,4-h]pteridin-5(6H)-yl)-N-methyl-N-((tetrahydro-2H-pyran-4-yl)methyl)acetamide]
2000 | O=C(CN1C[C@@H]2COCCN2c2nc(-c3ccc(CO)cc3)ncc21)NCC1CCOCC1 [Example 214, (R)-2-(2-(4-(hydroxymethyl)phenyl)-6a,7,9,10-tetrahydro-[1,4]oxazino[3,4-h]pteridin-5(6H)-yl)-N-((tetrahydro-2H-pyran-4-yl)methyl)acetamide]
5010 | O=C(CN1C[C@@H]2COCCN2c2nc(-c3ccccc3CO)ncc21)NCC1CCOCC1 [Example 215, (R)-2-(2-(2-(hydroxymethyl)phenyl)-6a,7,9,10-tetrahydro-[1,4]oxazino[3,4-h]pteridin-5(6H)-yl)-N-((tetrahydro-2H-pyran-4-yl)methyl)acetamide]
1000 | COCc1cccc(-c2ncc3c(n2)N2CCOC[C@H]2CN3CC(=O)NCC2CCOCC2)c1 [Example 216, (R)-2-(2-(3-(methoxymethyl)phenyl)-6a,7,9,10-tetrahydro-[1,4]oxazino[3,4-h]pteridin-5(6H)-yl)-N-((tetrahydro-2H-pyran-4-yl)methyl)acetamide]
794 | O=C(CN1C[C@@H]2COCCN2c2nc(-c3cccc(OC(F)F)c3)ncc21)NCC1CCOCC1 [Example 217, (R)-2-(2-(3-(difluoromethoxy)phenyl)-6a,7,9,10-tetrahydro-[1,4]oxazino[3,4-h]pteridin-5(6H)-yl)-N-((tetrahydro-2H-pyran-4-yl)methyl)acetamide]
1260 | N#Cc1cccc(-c2ncc3c(n2)N2CCOC[C@H]2CN3CC(=O)NCC2CCOCC2)c1 [Example 218, (R)-2-(2-(3-cyanophenyl)-6a,7,9,10-tetrahydro-[1,4]oxazino[3,4-h]pteridin-5(6H)-yl)-N-((tetrahydro-2H-pyran-4-yl)methyl)acetamide]
251 | O=C(CN1C[C@@H]2COCCN2c2nc(-c3ccc(F)c(CO)c3)ncc21)NCC1CCOCC1 [Example 220, (R)-2-(2-(4-fluoro-3-(hydroxymethyl)phenyl)-6a,7,9,10-tetrahydro-[1,4]oxazino[3,4-h]pteridin-5(6H)-yl)-N-((tetrahydro-2H-pyran-4-yl)methyl)acetamide]
126 | Nc1ccc(-c2ncc3c(n2)N2CCOC[C@H]2CN3CC(=O)NCC2CCOCC2)cn1 [Example 221, (R)-2-(2-(6-aminopyridin-3-yl)-6a,7,9,10-tetrahydro-[1,4]oxazino[3,4-h]pteridin-5(6H)-yl)-N-((tetrahydro-2H-pyran-4-yl)methyl)acetamide]
31.6 | CNC(=O)Nc1ccc(-c2ncc3c(n2)N2CCOC[C@H]2CN3CC(=O)NCC2CCOCC2)cc1 [Example 222, (R)-2-(2-(4-(3-methylureido)phenyl)-6a,7,9,10-tetrahydro-[1,4]oxazino[3,4-h]pteridin-5(6H)-yl)-N-((tetrahydro-2H-pyran-4-yl)methyl)acetamide]
794 | O=C(CN1C[C@@H]2COCCN2c2nc(-c3ccsc3)ncc21)NCC1CCOCC1 [Example 223, (R)—N-((tetrahydro-2H-pyran-4-yl)methyl)-2-(2-(thiophen-3-yl)-6a,7,9,10-tetrahydro-[1,4]oxazino[3,4-h]pteridin-5(6H)-yl)acetamide]
316 | CC(=O)Nc1ccc(-c2ncc3c(n2)N2CCOC[C@H]2CN3CC(=O)NCC2CCOCC2)cc1 [Example 224, (R)-2-(2-(4-acetamidophenyl)-6a,7,9,10-tetrahydro-[1,4]oxazino[3,4-h]pteridin-5(6H)-yl)-N-((tetrahydro-2H-pyran-4-yl)methyl)acetamide]
1580 | Cn1nccc1-c1ncc2c(n1)N1CCOC[C@H]1CN2CC(=O)NCC1CCOCC1 [Example 225, (R)-2-(2-(1-methyl-1H-pyrazol-5-yl)-6a,7,9,10-tetrahydro-[1,4]oxazino[3,4-h]pteridin-5(6H)-yl)-N-((tetrahydro-2H-pyran-4-yl)methyl)acetamide]
